Data as given in patent US9936701B2, “Herbicidal compounds” (Syngenta Participations AG, priority 2013, dated 2018).

system: a variety of test species; assay: Post-emergence herbicidal activity (glasshouse, sprayed after 8 days cultivation, evaluated after 13 days); assay type: in vivo; design: key: 5=total damage to plant; 0=no damage to plant; conditions: Abutilon theophrasti, rate 1000 g/Ha, scale 0-5
Outline: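 Pot-grown plants, 8 days after sowing, were sprayed with compound formulated in acetone/water (50:50) with 0.5% Tween 20. Glasshouse conditions 24/16° C day/night, 14 h light, 65% humidity; damage scored after 13 days on a 0 (none) to 5 (total) scale.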

SMILES | ABUTH (Abutilon theophrasti) damage score, application post-emergence
COCCNC1=C(Cl)C(=O)N(c2cc(C(C)(C)C)on2)C1O (centres unmarked) [C11] | 5
CCOCCNC1=C(Cl)C(=O)N(c2cc(C(C)(C)C)on2)C1O (centres unmarked) [C12] | 5
CC(=O)OC1C(N)=C(Cl)C(=O)N1c1cc(C(C)(C)C)on1 (centres unmarked) [C13] | 5
COC1=C(OC)C(O)N(c2cc(C(C)(C)C)on2)C1=O (centres unmarked) [F1] | 5

same assay, conditions: Alopecurus myosuroides, rate 1000 g/Ha, scale 0-5

SMILES | ALOMY (Alopecurus myosuroides) damage score, application post-emergence
COCCNC1=C(Cl)C(=O)N(c2cc(C(C)(C)C)on2)C1O (centres unmarked) [C11] | 4
CCOCCNC1=C(Cl)C(=O)N(c2cc(C(C)(C)C)on2)C1O (centres unmarked) [C12] | 3
CC(=O)OC1C(N)=C(Cl)C(=O)N1c1cc(C(C)(C)C)on1 (centres unmarked) [C13] | 5
COC1=C(C)CN(c2cc(C(C)(C)C)on2)C1=O [D9] | 5
COC1=C(OC)C(O)N(c2cc(C(C)(C)C)on2)C1=O (centres unmarked) [F1] | 4

same assay, conditions: Amaranthus retroflexus, rate 1000 g/Ha, scale 0-5

SMILES | AMARE (Amaranthus retroflexus) damage score, application post-emergence
COCCNC1=C(Cl)C(=O)N(c2cc(C(C)(C)C)on2)C1O (centres unmarked) [C11] | 5
CCOCCNC1=C(Cl)C(=O)N(c2cc(C(C)(C)C)on2)C1O (centres unmarked) [C12] | 4
CC(=O)OC1C(N)=C(Cl)C(=O)N1c1cc(C(C)(C)C)on1 (centres unmarked) [C13] | 5
COC1=C(C)CN(c2cc(C(C)(C)C)on2)C1=O [D9] | 5
COC1=C(OC)C(O)N(c2cc(C(C)(C)C)on2)C1=O (centres unmarked) [F1] | 5

same assay, conditions: Echinochloa crus-galli, rate 1000 g/Ha, scale 0-5

SMILES | ECHCG (Echinochloa crus-galli) damage score, application post-emergence
COCCNC1=C(Cl)C(=O)N(c2cc(C(C)(C)C)on2)C1O (centres unmarked) [C11] | 5
CCOCCNC1=C(Cl)C(=O)N(c2cc(C(C)(C)C)on2)C1O (centres unmarked) [C12] | 4
CC(=O)OC1C(N)=C(Cl)C(=O)N1c1cc(C(C)(C)C)on1 (centres unmarked) [C13] | 5
COC1=C(C)CN(c2cc(C(C)(C)C)on2)C1=O [D9] | 5
COC1=C(OC)C(O)N(c2cc(C(C)(C)C)on2)C1=O (centres unmarked) [F1] | 5

same assay, conditions: Setaria faberi, rate 1000 g/Ha, scale 0-5

SMILES | SETFA (Setaria faberi) damage score, application post-emergence
COCCNC1=C(Cl)C(=O)N(c2cc(C(C)(C)C)on2)C1O (centres unmarked) [C11] | 5
CCOCCNC1=C(Cl)C(=O)N(c2cc(C(C)(C)C)on2)C1O (centres unmarked) [C12] | 4
CC(=O)OC1C(N)=C(Cl)C(=O)N1c1cc(C(C)(C)C)on1 (centres unmarked) [C13] | 5
COC1=C(C)CN(c2cc(C(C)(C)C)on2)C1=O [D9] | 5
COC1=C(OC)C(O)N(c2cc(C(C)(C)C)on2)C1=O (centres unmarked) [F1] | 5

same assay, conditions: Zea mays, rate 1000 g/Ha, scale 0-5

SMILES | ZEAMX (Zea mays) damage score, application post-emergence
COCCNC1=C(Cl)C(=O)N(c2cc(C(C)(C)C)on2)C1O (centres unmarked) [C11] | 1
CCOCCNC1=C(Cl)C(=O)N(c2cc(C(C)(C)C)on2)C1O (centres unmarked) [C12] | 0
CC(=O)OC1C(N)=C(Cl)C(=O)N1c1cc(C(C)(C)C)on1 (centres unmarked) [C13] | 5
COC1=C(OC)C(O)N(c2cc(C(C)(C)C)on2)C1=O (centres unmarked) [F1] | 5

system: a variety of test species; assay: Pre-emergence herbicidal activity (glasshouse, sprayed one day after sowing, evaluated after 13 days); assay type: in vivo; design: key: 5=total damage to plant; 0=no damage to plant; conditions: ABUTH, application pre-emergence, rate 1000 g/Ha, scale 0-5
Outline: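 Seeds sown in standard soil in pots, held one day in glasshouse (24/16 °C day/night, 14 h light, 65% humidity), then sprayed with aqueous solution of compound formulated in acetone/water 50:50 with 0.5% Tween 20. Grown on under same conditions, watered twice daily; damage scored after 13 days (0 = none, 5 = total).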

SMILES | Pre-emergence herbicidal damage score, ABUTH
COCCNC1=C(Cl)C(=O)N(c2cc(C(C)(C)C)on2)C1O (centres unmarked) [C11] | 4
CCOCCNC1=C(Cl)C(=O)N(c2cc(C(C)(C)C)on2)C1O (centres unmarked) [C12] | 4
CC(=O)OC1C(N)=C(Cl)C(=O)N1c1cc(C(C)(C)C)on1 (centres unmarked) [C13] | 5
COC1=C(OC)C(O)N(c2cc(C(C)(C)C)on2)C1=O (centres unmarked) [F1] | 5

same assay, conditions: ALOMY, application pre-emergence, rate 1000 g/Ha, scale 0-5

SMILES | Pre-emergence herbicidal damage score, ALOMY
COCCNC1=C(Cl)C(=O)N(c2cc(C(C)(C)C)on2)C1O (centres unmarked) [C11] | 3
CCOCCNC1=C(Cl)C(=O)N(c2cc(C(C)(C)C)on2)C1O (centres unmarked) [C12] | 1
CC(=O)OC1C(N)=C(Cl)C(=O)N1c1cc(C(C)(C)C)on1 (centres unmarked) [C13] | 4
COC1=C(C)CN(c2cc(C(C)(C)C)on2)C1=O [D9] | 4
COC1=C(OC)C(O)N(c2cc(C(C)(C)C)on2)C1=O (centres unmarked) [F1] | 3

same assay, conditions: AMARE, application pre-emergence, rate 1000 g/Ha, scale 0-5

SMILES | Pre-emergence herbicidal damage score, AMARE
COCCNC1=C(Cl)C(=O)N(c2cc(C(C)(C)C)on2)C1O (centres unmarked) [C11] | 5
CCOCCNC1=C(Cl)C(=O)N(c2cc(C(C)(C)C)on2)C1O (centres unmarked) [C12] | 4
CC(=O)OC1C(N)=C(Cl)C(=O)N1c1cc(C(C)(C)C)on1 (centres unmarked) [C13] | 5
COC1=C(C)CN(c2cc(C(C)(C)C)on2)C1=O [D9] | 5
COC1=C(OC)C(O)N(c2cc(C(C)(C)C)on2)C1=O (centres unmarked) [F1] | 5

same assay, conditions: ECHCG, application pre-emergence, rate 1000 g/Ha, scale 0-5

SMILES | Pre-emergence herbicidal damage score, ECHCG
COCCNC1=C(Cl)C(=O)N(c2cc(C(C)(C)C)on2)C1O (centres unmarked) [C11] | 4
CCOCCNC1=C(Cl)C(=O)N(c2cc(C(C)(C)C)on2)C1O (centres unmarked) [C12] | 2
CC(=O)OC1C(N)=C(Cl)C(=O)N1c1cc(C(C)(C)C)on1 (centres unmarked) [C13] | 5
COC1=C(C)CN(c2cc(C(C)(C)C)on2)C1=O [D9] | 4
COC1=C(OC)C(O)N(c2cc(C(C)(C)C)on2)C1=O (centres unmarked) [F1] | 4

same assay, conditions: SETFA, application pre-emergence, rate 1000 g/Ha, scale 0-5

SMILES | Pre-emergence herbicidal damage score, SETFA
COCCNC1=C(Cl)C(=O)N(c2cc(C(C)(C)C)on2)C1O (centres unmarked) [C11] | 4
CCOCCNC1=C(Cl)C(=O)N(c2cc(C(C)(C)C)on2)C1O (centres unmarked) [C12] | 3
CC(=O)OC1C(N)=C(Cl)C(=O)N1c1cc(C(C)(C)C)on1 (centres unmarked) [C13] | 4
COC1=C(C)CN(c2cc(C(C)(C)C)on2)C1=O [D9] | 4
COC1=C(OC)C(O)N(c2cc(C(C)(C)C)on2)C1=O (centres unmarked) [F1] | 4

same assay, conditions: ZEAMX, application pre-emergence, rate 1000 g/Ha, scale 0-5

SMILES | Pre-emergence herbicidal damage score, ZEAMX
COCCNC1=C(Cl)C(=O)N(c2cc(C(C)(C)C)on2)C1O (centres unmarked) [C11] | 2
CCOCCNC1=C(Cl)C(=O)N(c2cc(C(C)(C)C)on2)C1O (centres unmarked) [C12] | 0
CC(=O)OC1C(N)=C(Cl)C(=O)N1c1cc(C(C)(C)C)on1 (centres unmarked) [C13] | 4
COC1=C(OC)C(O)N(c2cc(C(C)(C)C)on2)C1=O (centres unmarked) [F1] | 2
